# Columns and labels:
# [1] = Inhibition of trypsin-like activity of beta2 subunit of 20S proteasome in human erythrocytes using Boc-LRR-MCA as substrate preincubated with enzyme for 10 mins followed by substrate addition and measured after 3 hrs by fluorescence spectrophotometric analysis
# [2] = Inhibition of caspase-like activity of beta1 subunit of 20S proteasome in human erythrocytes using Z-LLE-MCA as substrate preincubated with enzyme for 10 mins followed by substrate addition and measured after 3 hrs by fluorescence spectrophotometeric analysis
SMILES,IC50 [1] [µM],IC50 [2] [µM]
C=C1CC[C@H]2C(C)(C)[C@H](O)CC[C@]2(C)[C@H]1C[C@]12O[C@H]1C(=O)C(COC(=O)C[C@H](C)O)=CC2=O,22.5,3.9
C=C1CC[C@H]2C(C)(C)[C@H](O)CC[C@]2(C)[C@H]1C[C@]12O[C@H]1[C@H](O)C(CO)=CC2=O,> 100,> 100
C=C1CC[C@H]2C(C)(C)[C@H](O)CC[C@]2(C)[C@H]1C[C@]12O[C@H]1C(=O)C(CO)=CC2=O,76.1,17.8
C=C1CC[C@H]2C(C)(C)[C@H](O)CC[C@]2(C)[C@H]1C[C@]12O[C@H]1[C@H](O)C(COC(=O)[C@H](O)[C@H](C)O)=CC2=O,> 100,87.3

# Second part, the compound after the results:
IC50 [1] [µM],IC50 [2] [µM],SMILES
> 100,30.1,C=C1CC[C@H]2C(C)(C)[C@H](O)CC[C@]2(C)[C@H]1C[C@]12O[C@H]1[C@H](O)C(COC(=O)C[C@H](C)O)=CC2=O
27.9,5.2,C=C1CC[C@H]2C(C)(C)[C@H](O)CC[C@]2(C)[C@H]1C[C@]12O[C@H]1C(=O)C(COC(=O)[C@H](O)[C@H](C)O)=CC2=O

# — BindingDB's records for doi:10.1016/j.bmc.2019.115161 (Iwate University, 2019)
